System: spared nerve injury (SNI) model, mechanical allodynia
Test: Von Frey test of mechanical allodynia in the spared nerve injury (SNI) model
Format: in vivo, Sprague-Dawley rats
Settings: SNI rats, 20 mg/kg i.p. daily, Von Frey monofilaments, naive and sham 15 g
Excerpt: For this purpose, the inventors have chosen the animal model designed by Decosterd and Woolf (Pain, 2000), which developed a partial denervation model, technically easy to perform and subject to minimal variability in the degree of damage produced. Most important was that this is a model that will enable a direct measurement of changes in both injured primary sensory neurons and in neighbouring intact sensory neurons so that their relative contribution to the pathophysiology of pain could be investigated. […] All procedures were performed on adult (200-250 g) male Sprague-Dawley rats. Under halothane (2%) anesthesia, the skin on the lateral surface of the thigh was incised and a section made directly through the biceps femoris muscle exposing the sciatic nerve and its three terminal branches: the sural, the common peroneal and the tibial nerves. The spared nerve injury procedure comprised an axotomy and ligation of the tibial and common peroneal nerves leaving the sural nerve intact. The common peroneal and the tibial nerves were tight-ligated with 5.0 silk and sectioned distal to the ligation, removing 2±4 mm of the distal nerve stump. Great care was taken to avoid any contact with or stretching of the intact sural nerve. Muscle and skin were closed in two layers. Sham controls involved exposure of the sciatic nerve and its branches without any lesion. The Von Frey test is a mechanical sensitivity assay that consists of thin calibrated plastic filaments, called Von Frey hairs, which are applied to the plantar surface of the hindpaw of the tested animal. The filaments present different degrees of stiffness that are used to determine the one that evokes a hindpaw withdrawal. Each filament, starting with the less stiff, is applied to the plantar surface of both hindpaws of each rat. The process is repeated with Von Frey hairs of increasing stiffness until one evokes a reflexive and sustained hindpaw withdrawal. This is defined as the withdrawal threshold, is measured in grams and is an indicator of mechanical allodynia. In the present example the animals were divided in 6 (six) groups (n=7 per group): naive control (negative control), sham control, SNI plus water (positive control), SNI plus (rac)-pirlindole 20 mg/kg, SNI plus (S)-pirlindole 20 mg/kg, SNI plus (R)-pirlindole 20 mg/kg and. After the application of surgical procedure to the groups of sham control, SNI plus water (positive control), SNI plus (rac)-pirlindole, SNI plus (S)-pirlindole and SNI plus (R)-pirlindole, the animals were confined during a 7 weeks (7 wk) period aiming the full induction of mechanical allodynia. Following a 3 week (3 wk), treatment period was started and water or one of the test items (rac-pirlindole, S-pirlindole and R-pirlindole) were administered by intraperitoneal (ip) route, on a daily basis. At the 2nd and 3rd week of treatment the mechanical allodynia was tested. The animals were placed on an elevated wire grid and the plantar surface of the paw stimulated with a series of ascending force Von Frey monofilaments. The threshold was taken as the lowest force that evoked a brisk withdrawal response to one of the repetitive stimuli (Tal and Bennett, 1994). The lateral and medial plantar surfaces of the paw as well as its dorsal surface were tested.

[1] = wk2 of treatment, SNI plus water 0.41 g
[2] = wk3 of treatment, SNI plus water 0.14 g

## Cc1ccc2c(c1)c1c3n2CCNC3CCC1 (racemic) [(rac)-pirlindole, 2,3,3a,4,5,6-hexahydro-8 methyl-1H-pyrazino [3,2,1-j, k] carbazole]
[1]
  mean lowest force that evoked a brisk withdrawal response: 3.50 g
[2]
  mean lowest force that evoked a brisk withdrawal response: 2.08 g

## Cc1ccc2c(c1)c1c3n2CCN[C@@H]3CCC1 [(R)-pirlindole]
[1]
  mean lowest force that evoked a brisk withdrawal response: 3.08 g
[2]
  mean lowest force that evoked a brisk withdrawal response: 1.39 g

## Cc1ccc2c(c1)c1c3n2CCN[C@H]3CCC1 [(S)-pirlindole]
[1]
  mean lowest force that evoked a brisk withdrawal response: 4.51 g
[2]
  mean lowest force that evoked a brisk withdrawal response: 7.43 g
